Patent publication US6372752B1 (priority 2000, dated 2002)
pIC50: −log10 of the molar value. Where a name gives a salt, the structure may show the parent alone. Read-outs that look alike come from different tables or passages of the source.

Key:
[1] = target: InhA (Mycobacterium tuberculosis, UniProt P9WGR1); experiment: InhA inhibition assay (NADH consumption, absorbance at 340); type: biochemical; details: for inhibition at 40 µM: 40 μM compound, read-out: Percentage Inhibition (@ 40 μM)
[2] = system: m. Embryo; experiment: Cell Tox (m. Embryo); details: m. Embryo cells
[3] = system: h. Kidney; experiment: Cell Tox (h. Kidney); details: h. Kidney cells
[4] = system: Bacillus Calmet-Guerin (BCG), Pasteur strain, of Mycobacterium bovis; experiment: microbe, parasite or virus in culture; type: cell-based; details: Mycobacterium tuberculosis variant bovis BCG
[5] = system: h. Lung; experiment: Cell Tox (h. Lung); details: h. Lung cells
[6] = read-out: IC50's for BCG growth

InhA, sequence (P9WGR1 whole entry, looked up): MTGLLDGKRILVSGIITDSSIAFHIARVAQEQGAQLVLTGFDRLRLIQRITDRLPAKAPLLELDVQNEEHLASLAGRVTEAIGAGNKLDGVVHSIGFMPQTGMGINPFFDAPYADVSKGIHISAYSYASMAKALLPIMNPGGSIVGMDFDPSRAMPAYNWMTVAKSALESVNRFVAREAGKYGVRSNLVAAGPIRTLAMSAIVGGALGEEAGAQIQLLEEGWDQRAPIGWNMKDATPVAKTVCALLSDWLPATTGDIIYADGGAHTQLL

## O=C(Cc1ccccc1F)NCCc1ccc(Cl)cc1 [Compound 1, N-[2-(4-Chlorophenyl)-ethyl]-2-(2-fluoro-phenyl)acetamide]
[1]; Table 2
  inhibition at 40 µM: 82%

## CCCC(=O)C1(c2ccccc2)CCN(C(=O)c2ccc3[nH]ccc3c2)CC1 [Compound 4, 1-[1-(1H-Indole-5-carbonyl)-4-phenyl-piperidin-4-yl]-butan-1-one]
[2]
  Cell Tox (m. Embryo): 46 to 50 µM
[3]
  Cell Tox (h. Kidney): 23 to 48 µM
[4]; read-out: BCG Growth IC-50
  pIC50: < 4.60
[5]
  Cell Tox (h. Lung): 33 to 50 µM
[1]
  pIC50: 6.64

## O=C(c1ccc(Cl)cc1)C1CCN(C(=O)c2ccc3[nH]ccc3c2)CC1 [Compound 5, [4-(4-Chlorobenzoyl)-piperidin-1-yl]-(1H-indol-5-yl)-methanone]
[1]; Table 6
  inhibition at 40 µM: 97%

## O=C(c1ccc2[nH]ccc2c1)N1CCN(c2ccc(Cl)cc2)CC1 [Compound 56]
[1]
  pIC50: 5.38

## Cc1ccc(Cl)cc1N1CCN(C(=O)c2ccc3[nH]ccc3c2)CC1 [Compound 57]
[1]
  pIC50: 5.98

## O=C(c1ccc2[nH]ccc2c1)N1CCN(c2cccc(Cl)c2)CC1 [Compound 58]
[1]
  pIC50: 5.92

## O=C(c1ccc2[nH]ccc2c1)N1CCN(c2cccc(C(F)(F)F)c2)CC1 [Compound 59]
[1]
  pIC50: 5.72

## O=C(c1ccc2[nH]ccc2c1)N1CCN(C2c3ccccc3-c3ccccc32)CC1 [Compound 70]
[2]
  Cell Tox (m. Embryo): 46 to 52 µM
[3]
  Cell Tox (h. Kidney): 35 to 44 µM
[4]; read-out: BCG Growth IC-50
  pIC50: 5.08
[5]
  Cell Tox (h. Lung): 24 to 48 µM

## O=C(c1ccc2[nH]ccc2c1)N1CCN(C2c3ccccc3-c3ccc([N+](=O)[O-])cc32)CC1 (stereo not shown) [Compound 71]
[2]
  Cell Tox (m. Embryo): 23 µM
[3]
  Cell Tox (h. Kidney): 28 µM
[4]; read-out: BCG Growth IC-50
  pIC50: 5.08
[5]
  Cell Tox (h. Lung): 37 µM
[1]; Table 9, read-out: InhA IC-50
  pIC50: 6.92

## O=C(c1ccc2[nH]ccc2c1)N1CCN(C2c3ccccc3-c3cc([N+](=O)[O-])ccc32)CC1 (stereo not shown) [Compound 72]
[2]
  Cell Tox (m. Embryo): 23 µM
[3]
  Cell Tox (h. Kidney): 29 µM
[4]; read-out: BCG Growth IC-50
  pIC50: 5.55
[5]
  Cell Tox (h. Lung): 34 µM
[1]; Table 9, read-out: InhA IC-50
  pIC50: 6.89

## O=C(c1ccc2[nH]ccc2c1)N1CCN(C2c3cc(Br)ccc3-c3ccc(Br)cc32)CC1 [Compound 73]
[4]; read-out: BCG Growth IC-50
  pIC50: 5.21
[1]; Table 9, read-out: InhA IC-50
  pIC50: 6.92

## CC[C@@H](CO)NCCN[C@@H](CC)CO [ethambutol, ethambutol dihydrochloride]
[4]; read-out: BCG Growth IC-50
  pIC50: 5.00
[4]; [6]
  pIC50: 5.00

## NNC(=O)c1ccncc1 [isoniazid, isonicotinic acid hydrazide]
[4]; read-out: BCG Growth IC-50
  pIC50: 5.52
[4]; [6]
  pIC50: 5.52

## CCCCCCCCCCCCCCCC(=O)SCCNC(=O)CCNC(=O)[C@H](O)C(C)(C)COP(=O)(O)OP(=O)(O)OC[C@H]1O[C@@H](n2cnc3c(N)ncnc32)[C@H](O)[C@@H]1OP(=O)(O)O [palmitoyl-CoA, reference compound]
[1]; at 375 uM, read-out: inhibition by internal standard
  inhibition at 375 µM: ~40%

## CO[C@H]1/C=C/O[C@@]2(C)Oc3c(C)c(O)c4c(O)c(c(/C=N/N5CCN(C)CC5)c(O)c4c3C2=O)NC(=O)/C(C)=C\C=C\[C@H](C)[C@H](O)[C@@H](C)[C@@H](O)[C@@H](C)[C@H](OC(C)=O)[C@@H]1C [rifampicin]
[4]; read-out: BCG Growth IC-50
  pIC50: 8.00
[4]; [6]
  pIC50: 8.00
